Results taken from the supplement of paper PMC10307832.

Assays:
Experiment in all cases: relative viability (nuclei count vs DMSO), 5 days (fraction); higher = more cells survive
[1] = compound: CC[C@@H](C)CNCC(=O)N1CCC2=C([C@@H]1COC3=CC=CC(=C3)C)C=CS2 [RU-SKI 43] + Cc1nc(Nc2ncc(C(=O)Nc3c(C)cccc3Cl)s2)cc(N2CCN(CCO)CC2)n1 [Dasatinib] (partner 0.075 µM)
Procedure, shortened: (§1)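 Lung cancer cell lines in 1536-well plates got either a single drug or a fixed anchor-drug dose together with five library-drug doses (not always all listed) in √10 steps, by pin tool, on the day after seeding. Nuclei were counted after 5 days, and relative viability is the treated-to-vehicle ratio of nuclei counts. Values are medians of duplicate plates.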

[2] = compound: CC[C@@H](C)CNCC(=O)N1CCC2=C([C@@H]1COC3=CC=CC(=C3)C)C=CS2 [RU-SKI 43] + Nc1ncn([C@H]2C[C@H](O)[C@@H](CO)O2)c(=O)n1 [Decitabine] (partner 2 µM)
Procedure, shortened: as §1

[3] = compound: Cn1cc(-c2cnc3ccc4ccc(CS(=O)(=O)NCc5ccccn5)cc4c(=O)c3c2)cn1 [MK-8033] + CS(=O)(=O)N1CCN(Cc2cc3nc(-c4cccc5[nH]ncc45)nc(N4CCOCC4)c3s2)CC1 [Pictilisib] (partner 1 µM)
Procedure, shortened: as §1

[4] = compound: CCc1c2c(nc3ccc(OC(=O)N4CCC(N5CCCCC5)CC4)cc13)-c1cc3c(c(=O)n1C2)COC(=O)[C@]3(O)CC [Irinotecan] + CC1(C)CCC(c2ccc(Cl)cc2)=C(CN2CCN(c3ccc(C(=O)NS(=O)(=O)c4ccc(N[C@H](CCN5CCOCC5)CSc5ccccc5)c(S(=O)(=O)C(F)(F)F)c4)cc3)CC2)C1 [Navitoclax] (partner 0.5 µM)
Procedure, shortened: as §1

UMC-11 showed a relative viability ([1]; first compound 0.1 µM) of 0.526, a relative viability ([1]; first compound 0.3162 µM) of 0.685 and a relative viability ([1]; first compound 1 µM) of 0.577. The relative viability ([1]; first compound 3.162 µM) was 0.516, the relative viability ([1]; first compound 10 µM) was 0.471 and the relative viability ([2]; first compound 0.1 µM) was 0.668. It also gave a relative viability ([2]; first compound 0.3162 µM) of 0.614, a relative viability ([2]; first compound 1 µM) of 0.675 and a relative viability ([2]; first compound 3.162 µM) of 0.619. For the same cell line, the relative viability ([2]; first compound 10 µM) was 0.64, the relative viability ([3]; first compound 0.02 µM) was 0.746 and the relative viability ([3]; first compound 0.06325 µM) was 0.511. For the same cell line, the relative viability ([3]; first compound 0.2 µM) was 0.804, the relative viability ([3]; first compound 0.6325 µM) was 0.932 and the relative viability ([3]; first compound 2 µM) was 0.699. The relative viability ([4]; first compound 0.6325 µM) was 0.235, the relative viability ([4]; first compound 2 µM) was 0.208 and the relative viability ([4]; first compound 6.325 µM) was 0.163. It also gave a relative viability ([4]; first compound 20 µM) of 0.147.
